Source: US7968591B2, “1,3-disubstituted 4-methyl-1H-pyrrole-2-carboxamides and their use in medicaments” (Gruenenthal GmbH, priority 2006, dated 2011)

Target: T1, NA transporter (Rattus norvegicus, UniProt Q63380)
T1 construct: from tissue; host or cells: rat brain hypothalamus, synaptosomes (P2 fraction)
Assay: Noradrenalin uptake inhibition in rat brain synaptosomes
Type: biochemical
Conditions: synaptosomes from rat hypothalamus, [3H]-NA
Excerpt: (§1) I. Method for Determining Noradrenalin and 5-HT Uptake Inhibition:
(§2) Synaptosomes from rat brain regions were freshly isolated for in vitro studies, as described in the publication “The isolation of nerve endings from brain” by E. G. Gray and V. P. Whittaker, J. Anatomy 96, pages 79-88, 1962. The corresponding literature description is hereby introduced as a reference and is deemed to be part of the disclosure.
(§3) The tissue (hypothalamus for the determination of noradrenalin uptake inhibition and medulla and pons for the determination of 5-HT uptake inhibition) was homogenized in ice-cooled 0.32 M sucrose (100 mg of tissue/1 mL) in a glass homogenizer with Teflon pestle using five complete up and down strokes at 840 revolutions/minute. The homogenate was centrifuged at 4° C. for 10 minutes at 1000 g. After subsequent centrifugation at 17000 g for 55 minutes, the synaptosomes (P2 fraction) were obtained, which were resuspended in 0.32 M glucose (0.5 mL/100 mg of original weight). The particular uptake was measured in a 96-well microtitre plate. The volume was 250 μl and incubation proceeded at room temperature (approx. 20-25° C.) under an O2 atmosphere. The incubation time was 7.5 minutes for [^3H]-NA and 5 minutes for [^3H]-5-HT. The 96 samples were then filtered through a Unifilter GF/B® microtitre plate (Packard) and washed with […] of incubated buffer using a “Brabdel MPXRI-96T Cell-Harvester”. The Unifilter GF/B plate was dried for 1 hour at 55° C. The plate was then sealed with a Back Seal® (Packard) and 35 μl of scintillation fluid were added per well (Ultima Gold®, Packard). After sealing with a top Seal® (Packard) and establishing an equilibrium (around 5 hours), radioactivity was determined in a “Trilux 1450 Microbeta” (Wallac).
(§4) A detailed description of the method may additionally be found in the literature, for example in M. Ch. Frink, H.-H. Hennies, W. Engelberger, M. Haurand and B. Wilffert (1996) Arzneim.-Forsch./Drug Res. 46 (III), 11, 1029-1036.

T1 sequence (Q63380 1-617): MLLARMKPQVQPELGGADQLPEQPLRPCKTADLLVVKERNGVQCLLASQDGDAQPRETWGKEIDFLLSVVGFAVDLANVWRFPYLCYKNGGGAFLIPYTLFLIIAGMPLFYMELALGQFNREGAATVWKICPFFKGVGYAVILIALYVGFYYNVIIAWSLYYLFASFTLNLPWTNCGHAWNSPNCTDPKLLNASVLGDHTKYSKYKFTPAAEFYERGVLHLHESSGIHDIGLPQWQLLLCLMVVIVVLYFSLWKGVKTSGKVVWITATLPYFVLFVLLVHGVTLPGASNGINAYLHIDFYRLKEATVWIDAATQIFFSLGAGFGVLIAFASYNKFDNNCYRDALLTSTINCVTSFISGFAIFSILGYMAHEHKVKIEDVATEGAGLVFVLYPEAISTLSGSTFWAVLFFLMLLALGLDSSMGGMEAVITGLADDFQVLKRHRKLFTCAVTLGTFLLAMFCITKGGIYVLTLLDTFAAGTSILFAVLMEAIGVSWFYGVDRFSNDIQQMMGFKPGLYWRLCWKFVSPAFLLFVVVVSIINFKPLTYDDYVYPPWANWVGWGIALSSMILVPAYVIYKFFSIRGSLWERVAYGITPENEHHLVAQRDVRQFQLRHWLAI

| Structure (SMILES) | inhibition at 10 µM [%] |
| --- | --- |
| Cc1cn(Cc2ccccc2)c(C(=O)N2CCN(c3ccccc3Cl)CC2)c1-c1ccc(Cl)cc1 [Example 8, [1-benzyl-3-(4-chlorophenyl)-4-methyl-1H-pyrrol-2-yl]-[4-(2-chlorophenyl)-piperazin-1-yl]-methanone] | 70 |
| Cc1ccc(-c2c(C)cn(C)c2C(=O)N2CCN(C3CCCCCC3)CC2)cc1 [Example 24, (4-cycloheptylpiperazin-1-yl)-(1,4-dimethyl-3-p-tolyl-1H-pyrrol-2-yl)-methanone] | 33 |
| Cc1cn(Cc2ccccc2)c(C(=O)NCc2ccccn2)c1-c1ccccc1 [Example 26, 1-benzyl-4-methyl-3-phenyl-1H-pyrrole-2-carboxylic acid (pyridin-2-ylmethyl)-amide] | 33 |
| Cc1cn(CC(C)C)c(C(=O)NCc2ccc(N(C)C)cc2)c1-c1ccc(Cl)cc1 [Example 32, 3-(4-chlorophenyl)-1-isobutyl-4-methyl-1H-pyrrole-2-carboxylic acid 4-dimethylaminobenzylamide] | 35 |
| COc1ccc(-c2c(C)cn(Cc3ccc(F)cc3)c2C(=O)NCCc2cccs2)cc1 [Example 35, 1-(4-fluorobenzyl)-3-(4-methoxyphenyl)-4-methyl-1H-pyrrole-2-carboxylic acid (2-thiophen-2-ylethyl)-amide] | 37 |
| Cc1ccccc1N1CCN(C(=O)c2c(-c3ccc(Cl)cc3)c(C)cn2C)CC1 [Example 46, [3-(4-chlorophenyl)-1,4-dimethyl-1H-pyrrol-2-yl]-(4-o-tolylpiperazin-1-yl)-methanone] | 63 |
| Cc1cn(C)c(C(=O)N2CCN(C3CCCCCC3)CC2)c1-c1ccco1 [Example 61, (4-cycloheptylpiperazin-1-yl)-(3-furan-2-yl-1,4-dimethyl-1H-pyrrol-2-yl)-methanone] | 34 |
| Cc1cn(Cc2ccc(F)cc2)c(C(=O)NCCCN(C)C)c1-c1ccco1 [Example 63, 1-(4-fluorobenzyl)-3-furan-2-yl-4-methyl-1H-pyrrole-2-carboxylic acid (3-dimethylamino-propyl)-amide] | 57 |
| CCN(CC)CCCNC(=O)c1c(-c2ccc(Cl)cc2)c(C)cn1CC(C)C [Example 65, 3-(4-chlorophenyl)-1-isobutyl-4-methyl-1H-pyrrole-2-carboxylic acid (3-diethylamino-propyl)-amide] | 35 |
| COc1ccc(-c2c(C)cn(C)c2C(=O)N2CCN(c3cccc(Cl)c3)CC2)cc1 [Example 70, [4-(3-chlorophenyl)-piperazin-1-yl]-[3-(4-methoxyphenyl)-1,4-dimethyl-1H-pyrrol-2-yl]-methanone] | 69 |
| Cc1cn(C)c(C(=O)NCCCN2CCCCC2C)c1-c1ccc(Cl)cc1 (stereo not shown) [Example 78, 3-(4-chlorophenyl)-1,4-dimethyl-1H-pyrrole-2-carboxylic acid [3-(2-methylpiperidin-1-yl)-propyl]-amide] | 32 |
| Cc1cn(C)c(C(=O)NCc2ccc(F)cc2C(F)(F)F)c1-c1ccco1 [Example 80, 3-furan-2-yl-1,4-dimethyl-1H-pyrrole-2-carboxylic acid 4-fluoro-2-trifluoromethylbenzylamide] | 30 |
| Cc1cn(Cc2ccccc2)c(C(=O)NC(C)c2ccc3ccccc3c2)c1-c1ccco1 (stereo not shown) [Example 81, 1-benzyl-3-furan-2-yl-4-methyl-1H-pyrrole-2-carboxylic acid (1-naphthalen-2-ylethyl)-amide] | 57 |

Target: T2, 5-HT uptake (Rattus norvegicus, UniProt P31652)
T2 construct: from tissue; host or cells: rat brain medulla and pons, synaptosomes (P2 fraction)
Assay: 5-HT uptake inhibition in rat brain synaptosomes
Type: biochemical
Conditions: synaptosomes from rat medulla and pons, [3H]-5-HT
Excerpt: as §1, §2, §3, §4

T2 sequence (P31652 whole entry): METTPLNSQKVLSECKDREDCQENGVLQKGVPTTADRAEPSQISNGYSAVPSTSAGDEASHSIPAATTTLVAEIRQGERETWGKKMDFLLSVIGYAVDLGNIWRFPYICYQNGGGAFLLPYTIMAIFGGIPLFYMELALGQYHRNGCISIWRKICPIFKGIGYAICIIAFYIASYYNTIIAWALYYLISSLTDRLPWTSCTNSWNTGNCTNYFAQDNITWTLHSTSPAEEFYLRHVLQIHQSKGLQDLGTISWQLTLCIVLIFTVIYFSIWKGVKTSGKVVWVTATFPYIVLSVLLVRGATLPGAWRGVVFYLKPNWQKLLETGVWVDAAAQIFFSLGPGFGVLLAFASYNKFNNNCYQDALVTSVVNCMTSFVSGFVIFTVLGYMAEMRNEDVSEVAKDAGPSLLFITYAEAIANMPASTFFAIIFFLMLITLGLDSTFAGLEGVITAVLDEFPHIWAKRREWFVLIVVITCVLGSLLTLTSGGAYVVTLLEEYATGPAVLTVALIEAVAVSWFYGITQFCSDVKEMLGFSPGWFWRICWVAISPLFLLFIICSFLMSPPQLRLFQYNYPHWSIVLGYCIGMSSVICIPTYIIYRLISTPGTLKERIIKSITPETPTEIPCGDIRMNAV

| Structure (SMILES) | inhibition at 10 µM [%] |
| --- | --- |
| COc1ccc(CNC(=O)c2c(-c3ccco3)c(C)cn2Cc2ccc(F)cc2)c(OC)c1 [Example 3, 1-(4-fluorobenzyl)-3-furan-2-yl-4-methyl-1H-pyrrole-2-carboxylic acid 2,4-dimethoxybenzylamide] | 58 |
| CCCCn1cc(C)c(-c2ccc(C)cc2)c1C(=O)NCCc1ccccn1 [Example 4, 1-butyl-4-methyl-3-p-tolyl-1H-pyrrole-2-carboxylic acid (2-pyridin-2-ylethyl)-amide] | 39 |
| Cc1ccc(Cn2cc(C)c(-c3ccc(C)cc3)c2C(=O)N2CCN(c3ccc(C)cc3C)CC2)cc1 [Example 18, [4-(2,4-dimethylphenyl)-piperazin-1-yl]-[4-methyl-1-(4-methylbenzyl)-3-p-tolyl-1H-pyrrol-2-yl]-methanone] | 50 |
| Cc1ccc(-c2c(C)cn(Cc3c(Cl)cccc3Cl)c2C(=O)N(C)CCc2ccccn2)cc1 [Example 19, 1-(2,6-dichlorobenzyl)-4-methyl-3-p-tolyl-1H-pyrrole-2-carboxylic acid methyl-(2-pyridin-2-ylethyl)-amide] | 39 |
| Cc1ccc(-c2c(C)cn(C)c2C(=O)N2CCN(C3CCCCCC3)CC2)cc1 [Example 24, (4-cycloheptylpiperazin-1-yl)-(1,4-dimethyl-3-p-tolyl-1H-pyrrol-2-yl)-methanone] | 54 |
| COc1ccc(-c2c(C)cn(Cc3ccc(F)cc3)c2C(=O)NC(C)C(=O)OCc2ccccc2)cc1 (stereo not shown) [Example 29, 2-{[1-(4-fluorobenzyl)-3-(4-methoxyphenyl)-4-methyl-1H-pyrrole-2-carbonyl]-amino}-propionic acid benzyl ester] | 52 |
| CCn1cc(C)c(-c2ccc(Cl)cc2)c1C(=O)NCc1cccc(OC)c1OC [Example 34, 3-(4-chlorophenyl)-1-ethyl-4-methyl-1H-pyrrole-2-carboxylic acid 2,3-dimethoxybenzylamide] | 37 |
| CCn1cc(C)c(-c2ccc(Cl)cc2)c1C(=O)NC(C(=O)OC(C)(C)C)C(C)C (stereo not shown) [Example 36, 2-{[3-(4-chlorophenyl)-1-ethyl-4-methyl-1H-pyrrole-2-carbonyl]-amino}-3-methylbutyric acid tert.-butyl ester] | 74 |
| COc1ccc(Cn2cc(C)c(-c3ccco3)c2C(=O)NC2CCCc3ccccc32)cc1 (stereo not shown) [Example 37, 3-furan-2-yl-1-(4-methoxybenzyl)-4-methyl-1H-pyrrole-2-carboxylic acid (1,2,3,4-tetrahydro-naphthalen-1-yl)-amide] | 68 |
| COc1ccc(Cn2cc(C)c(-c3ccc(C)cc3)c2C(=O)N(C)CC(=O)OCc2ccccc2)cc1 [Example 39, {[1-(4-methoxybenzyl)-4-methyl-3-p-tolyl-1H-pyrrole-2-carbonyl]-methylamino}-acetic acid benzyl ester] | 54 |
| CCOc1ccc(Br)cc1CN1CCN(C(=O)c2c(-c3ccccc3)c(C)cn2C)CC1 [Example 41, [4-(5-bromo-2-ethoxybenzyl)-piperazin-1-yl]-(1,4-dimethyl-3-phenyl-1H-pyrrol-2-yl)-methanone] | 37 |
| Cc1ccccc1N1CCN(C(=O)c2c(-c3ccc(Cl)cc3)c(C)cn2C)CC1 [Example 46, [3-(4-chlorophenyl)-1,4-dimethyl-1H-pyrrol-2-yl]-(4-o-tolylpiperazin-1-yl)-methanone] | 34 |
| CCOc1ccc(CCNC(=O)c2c(-c3ccc(OC)cc3)c(C)cn2Cc2ccc(F)cc2)cc1 [Example 47, 1-(4-fluorobenzyl)-3-(4-methoxyphenyl)-4-methyl-1H-pyrrole-2-carboxylic acid [2-(4-ethoxyphenyl)-ethyl]-amide] | 67 |
| COc1cc(OC)c(CN2CCN(C(=O)c3c(-c4ccc(C)cc4)c(C)cn3C)CC2)c(OC)c1 [Example 49, (1,4-dimethyl-3-p-tolyl-1H-pyrrol-2-yl)-[4-(2,4,6-trimethoxybenzyl)-piperazin-1-yl]-methanone] | 30 |
| Cc1cn(C)c(C(=O)N2CCN(c3ccncc3)CC2)c1-c1ccc(Cl)cc1 [Example 57, [3-(4-chlorophenyl)-1,4-dimethyl-1H-pyrrol-2-yl]-(4-pyridin-4-ylpiperazin-1-yl)-methanone] | 66 |
| Cc1cn(Cc2ccccc2F)c(C(=O)NCCCn2ccnc2)c1-c1ccc(Cl)cc1 [Example 58, 3-(4-chlorophenyl)-1-(2-fluorobenzyl)-4-methyl-1H-pyrrole-2-carboxylic acid (3-imidazol-1-ylpropyl)-amide] | 50 |
| Cc1cn(Cc2ccccc2)c(C(=O)NCCc2ccc(Br)cc2)c1-c1ccco1 [Example 60, 1-benzyl-3-furan-2-yl-4-methyl-1H-pyrrole-2-carboxylic acid [2-(4-bromophenyl)-ethyl]-amide] | 67 |
| Cc1cn(C)c(C(=O)N2CCN(C3CCCCCC3)CC2)c1-c1ccco1 [Example 61, (4-cycloheptylpiperazin-1-yl)-(3-furan-2-yl-1,4-dimethyl-1H-pyrrol-2-yl)-methanone] | 52 |
| COc1ccc(OCCNC(=O)c2c(-c3ccccc3)c(C)cn2Cc2ccccc2)cc1 [Example 62, 1-benzyl-4-methyl-3-phenyl-1H-pyrrole-2-carboxylic acid [2-(4-methoxyphenoxy)-ethyl]-amide] | 73 |
| Cc1cn(Cc2ccc(F)cc2)c(C(=O)NCCCN(C)C)c1-c1ccco1 [Example 63, 1-(4-fluorobenzyl)-3-furan-2-yl-4-methyl-1H-pyrrole-2-carboxylic acid (3-dimethylamino-propyl)-amide] | 50 |
| COc1ccc(-c2c(C)cn(C)c2C(=O)N2CCN(c3cccc(Cl)c3)CC2)cc1 [Example 70, [4-(3-chlorophenyl)-piperazin-1-yl]-[3-(4-methoxyphenyl)-1,4-dimethyl-1H-pyrrol-2-yl]-methanone] | 54 |
